Literature values as cited in US10463585B2, “Cosmetic compositions” (The Procter & Gamble Company, priority 2017, dated 2019).

Tested on: tyrosinase expression
Details: in vivo; background statement

In the case of “PKEK (Artificial sequence is synthesized)”, the Tyrosinase expression is given as “reduce tyrosinase expression”.
